In US20110245192A1, “NEW ACTIVATORS FOR TREATING AND/OR PREVENTING DISEASES OR MEDICAL CONDITIONS WHICH BENEFIT FROM AN INCREASED TRANSPORT OF HYALURONAN ACROSS A LIPID BILAYER” (priority 2008, published 2011):

Test system: hyaluronan transport/export in fibroblasts
Assay: Assay for hyaluronan transport/export activators in fibroblast cell culture (hyaluronan in culture medium by ELISA)
Format: cell-based
Details: 2 days at 37° C.
Protocol: Compound 89 activates 4,7fold, while compound 101 activates 2,4fold. The “activatory capability” as described herein is expressed as the ratio of hyaluronan exported in the presence and absence of the compound. Methods to determine the hyaluronan transport are disclosed herein, and are also disclosed in great detail in WO2005/013947.
Trypsinised fibroblasts were suspended in Dulbeccos medium at 10^5 cells/ml and 100 μl aliquots were transferred to a 96 well microtiter plate. The first row received 200 μl of the suspension and 20 μl of the activators of the invention dissolved in phosphate buffered saline at concentrations of 4 mM. A serial dilution of the activators was established by transfer of 100 μl aliquots from the first row to the following rows. All experiments were performed in duplicates. […] The cells were incubated for 2 days at 37° C. and aliquots (5 and 20 μl) of the culture medium were used for measurement of the hyaluronan concentration in the cell culture medium by an ELISA [125]. […] The adsorption was read at 490 nm. The concentrations in the samples were calculated from a logarithmic regression curve of the hyaluronan standard solutions. […]

SMILES | activatory capability: ratio of hyaluronan exported in the presence and absence of the compound
CC(=O)Nc1c(O)cc(O)cc1Oc1ccc(N)cc1C(=O)O [Compound 89] | 4,7 fold
CC(=O)Nc1c(O)cccc1Oc1ccc(N)cc1C(=O)O [Compound 101] | 2,4 fold
